Assay results: BindingDB's records for doi:10.1021/bi051886s (Johnson & Johnson Pharmaceutical, 2006)

Legend:
Assay in all cases: Protease Inhibition Assay
[1] = target: T1, Dimer of Gag-Pol polyprotein [490-588,L523I,E525D,M526I,I544V,L553H,H559K,L579M] (Human immunodeficiency virus 1, UniProt P05959, E525D/H559K/I544V/L523I/L553H/L579M/M526I)
T1 construct: 490-588

[2] = target: T2, Dimer of Gag-Pol polyprotein [501-599,V583F] (Human immunodeficiency virus 1, UniProt P03367, V583F); settings: pH 4.7; 37 °C
T2 construct: 501-599

[3] = target: T3, Dimer of Gag-Pol polyprotein [501-599] (Human immunodeficiency virus 1, UniProt P03367); settings: pH 4.7; 37 °C
T3 construct: 501-599

[4] = target: T4, Dimer of Gag-Pol polyprotein [482-580,I502K,I528M,T553A,V564F] (Human immunodeficiency virus 1, UniProt P24740, I502K/I528M/T553A/V564F)
T4 construct: 482-580

[5] = target: T5, Dimer of Gag-Pol polyprotein [482-580,I502K,I528M,T553A] (Human immunodeficiency virus 1, UniProt P24740, I502K/I528M/T553A); settings: pH 4.7; 37 °C
T5 construct: 482-580

[6] = target: T6, Dimer of Gag-Pol polyprotein [490-588,L523I,E525D,M526I,I544V,L553H,H559K,V572F,L579M] (Human immunodeficiency virus 1, UniProt P05959, E525D/H559K/I544V/L523I/L553H/L579M/M526I/V572F)
T6 construct: 490-588

Compound | Ki [1] [nM] | Ki [2] [nM] | Ki [3] [nM] | Ki [4] [nM] | Ki [5] [nM] | Ki [6] [nM]
Cc1cccc(C)c1OCC(=O)N[C@@H](Cc1ccccc1)[C@@H](O)C[C@H](Cc1ccccc1)NC(=O)[C@H](C(C)C)N1CCCNC1=O [(2S)-N-[(2S,4S,5S)-5-[2-(2,6-dimethylphenoxy)acetamido]-4-hydroxy-1,6-diphenylhexan-2-yl]-3-methyl-2-(2-oxo-1,3-diazinan-1-yl)butanamide] | 0.5 | 0.2 | 0.05 | 0.48 | 0.019 | 9
Cc1c(O)cccc1C(=O)N[C@@H](CSc1ccccc1)[C@H](O)CN1C[C@H]2CCCC[C@H]2C[C@H]1C(=O)NC(C)(C)C [Viracept] | 17 |  |  |  |  | 146
CC(C)(C)NC(=O)[C@@H]1CN(Cc2cccnc2)CCN1C[C@@H](O)C[C@@H](Cc1ccccc1)C(=O)N[C@H]1c2ccccc2C[C@H]1O [Crixivan] | 42 |  |  | 108 | 6.9 | 1620
COC(=O)N[C@H](C(=O)N[C@@H](Cc1ccccc1)[C@@H](O)CN(Cc1ccc(-c2ccccn2)cc1)NC(=O)[C@@H](NC(=O)OC)C(C)(C)C)C(C)(C)C [CGP 73547] | 1.1 | 0.56 |  | 0.57 | 0.24 | 0.7
CC(C)(C)NC(=O)[C@@H]1C[C@@H]2CCCC[C@@H]2CN1C[C@@H](O)[C@H](Cc1ccccc1)NC(=O)[C@H](CC(N)=O)NC(=O)c1ccc2ccccc2n1 [SQV] | 48 |  |  | 0.43 | 1.8 | 24
CC(C)CN(C[C@@H](O)[C@H](Cc1ccccc1)NC(=O)O[C@H]1CCOC1)S(=O)(=O)c1ccc(N)cc1 [VX-478] | 1.4 |  |  | 1.2 | 0.4 | 23
